From ChEMBL document CHEMBL4024763, “Discovery and Optimization of Pyrrolopyrimidine Inhibitors of Interleukin-1 Receptor Associated Kinase 4 (IRAK4) for the Treatment of Mutant MYD88L265P Diffuse Large B-Cell Lymphoma” (J Med Chem, 2017)
In brackets after ≈: the same amount, converted by molar mass.

Assay: Drug excretion in bile duct cannulated rat urine at 2 mg/kg, iv
Type: ADME, organism-based
Conditions: read-out: Drug excretion
`c1nc(N[C@H]2CC[C@H](N3CCOCC3)CC2)c2c(C3CCOCC3)c[nH]c2n1` gave a dose excreted of 27%.

Assay: Aqueous solubility of the compound at pH 7.4 at 25 degC
Type: physicochemical
Conditions: buffer
For `c1nc(S[C@H]2CC[C@H](N3CCOCC3)CC2)c2c(C3CCOCC3)c[nH]c2n1`, the solubility was 5 µM (≈ 2.01 µg/mL).

Assay: Lipophilicity, log D of the compound at pH 7.4 by shake flask method
Type: physicochemical
Conditions: buffer
In the case of `CN(C)[C@H]1CC[C@H](Nc2ncnc3[nH]cc(C4CCCO4)c23)CC1` (stereo in doubt; 18b), the logD is reported as 0.3.

Same assay, conditions: buffer, read-out: logD
Compound `CN(C)[C@H]1CC[C@H](Nc2ncnc3sc4c(c23)CCC4)CC1` has a logD of 1.2. For `CN(C)[C@H]1CC[C@H](Nc2ncnc3[nH]cc(C4CCCOC4)c23)CC1` (some centres not stated), the logD was 0.3. `CN(C)[C@H]1CC[C@H](Nc2ncnc3[nH]cc(C(F)(F)F)c23)CC1` gave a logD of 1.5. For `c1nc(O[C@H]2CC[C@H](N3CCOCC3)CC2)c2c(C3CCOCC3)c[nH]c2n1`, the logD was 2.4. With `Cc1sc2ncnc(N[C@H]3CC[C@H](N(C)C)CC3)c2c1C` the logD was 0.7. Work on `CN(C)[C@H]1CC[C@H](N(C)c2ncnc3[nH]cc(C4CCOCC4)c23)CC1` yielded a logD of 0.6. Work on `CCc1c[nH]c2ncnc(N[C@H]3CC[C@H](N(C)C)CC3)c12` yielded a logD of 0.6. Compound `CN(C)[C@H]1CC[C@H](Nc2ncnc3[nH]cc(C4CCC4)c23)CC1` has a logD of 1.5. `N#Cc1cnc2[nH]cc(C3CCOCC3)c2c1N[C@H]1CC[C@H](N2CCOCC2)CC1` showed a logD of 2.3. Compound `Cc1csc2ncnc(N[C@H]3CC[C@H](N(C)C)CC3)c12` has a logD of 0.3. `Cc1cc2c(N[C@H]3CC[C@H](N(C)C)CC3)ncnc2[nH]1` showed a logD of -0.2. With `c1nc(S[C@H]2CC[C@H](N3CCOCC3)CC2)c2c(C3CCOCC3)c[nH]c2n1` the logD was 3. With `CN(C)[C@H]1CC[C@H](Nc2ncnc3[nH]c4c(c23)CCC4)CC1` the logD was 0.5. `CN(C)[C@H]1CC[C@H](Nc2ncnc3[nH]cc(C4CC4)c23)CC1` gave a logD of 0.9. With `CN(C)[C@H]1CC[C@H](Nc2ncnc3[nH]ccc23)CC1` the logD was -0.6. With `Cc1cc2c(N[C@H]3CC[C@H](N(C)C)CC3)ncnc2s1` the logD was 0.6. `CN(C)[C@H]1CC[C@H](Oc2ncnc3[nH]cc(C4CCOCC4)c23)CC1` gave a logD of 1.2. For `CN(C)[C@H]1CC[C@H](Nc2ncnc3[nH]cc(C4CCCC4)c23)CC1`, the logD was 1.7. For `CN(C)[C@H]1CC[C@H](Nc2ncnc3sccc23)CC1`, the logD was 0.1. `c1cc(N[C@H]2CC[C@H](N3CCOCC3)CC2)c2c(C3CCOCC3)c[nH]c2n1` gave a logD of 1.7. `Cc1[nH]c2ncnc(N[C@H]3CC[C@H](N(C)C)CC3)c2c1C` gave a logD of 0.6. In the case of `CN(C)[C@H]1CC[C@H](Nc2ncnc3[nH]cc(C4CCCO4)c23)CC1` (stereo in doubt; 18a), the logD is reported as 0.4. Compound `CN(C)[C@H]1CC[C@H](Nc2ncnc3[nH]cc(C4CCOC4)c23)CC1` (stereo in doubt; 19a) has a logD of 0.1.

Assay: Drug excretion in bile duct cannulated rat bile at 2 mg/kg, iv
Type: ADME, organism-based
Conditions: read-out: Drug excretion
`c1nc(N[C@H]2CC[C@H](N3CCOCC3)CC2)c2c(C3CCOCC3)c[nH]c2n1` showed a dose excreted of 2%.
